# Patent US10174358B2 (priority 2013, dated 2019)
# Target: T1, EF-Tu:GTP:aa-tRNA ternary complex (Escherichia coli, UniProt P0CE48, C138A/C256V/E349C)
# T1 construct: made in house; host or cells: E. coli BL-21
# Format: binding
# Conditions: for effect of the inhibitor on fluorescence intensity in the assay: addition of inhibitor to the formed ternary complex, Ex 532/Em 665 nm
# Description: FRET Assay (Assembly Fluorescence)
# FRET measurements were done using Photon Technology International fluorescence spectrofluorometer with FeliX software. Cy3 fluorescence was monitored in the spectrum or time base mode at excitation/emission 549/565 nm. […] The slot parameters and photomultiplier voltage were adjusted to get a response in the range of 0.5-1.2×10^6 RFU for the Cy3 fluorescence scan at the 20-30 nM Phe-tRNA^Phe(Cy3) concentration and 4-5×10^4 RFU for Cy5 fluorescence scan (excitation/emission 633/665 nm) at the 300-400 nM Cy5-EF-Tu concentration. The titration of Phe-tRNA^Phe(Cy3) by Cy5-EF-Tu was typically done in presence of 100 μM GTP in a 150 μl volume of the same incubation buffer as used in the above mentioned gel retardation assay. During the assay (up to 120 minutes), the reaction mix also was supplemented with 1 mM ATP and 5 μg/ml of Phe-tRNA synthetase to prevent deacylation of Phe-tRNA^Phe(Cy3). The concentration of Phe-RNA^Phe(Cy3) was up to 30 nM and GTP:Cy5-EF-Tu was varied in range of 30-240 nM.
# All FRET measurements were done using PTI (Photon Technology International) fluorescence spectrofluorometer with FeliX 1.42B software. The FRET was monitored in the time-base mode using the 532 nm excitation and 665 nm emission (suitable for the Cy5 dye). The slot parameters and photomultiplier voltage were adjusted to get a response in the range of 2.6-3×10^3 RFU for the Cy5 fluorescence at a 200 nM concentration of Cy5-labeled EF-Tu. Time-base titration experiments were typically carried out in a 150 μl black cuvette at 25 or 37° C. The Cy5 fluorescence was monitored at five second intervals for up to 2 hours. Cy5-labeled EF-Tu carrying the E348C mutation was added from a concentrated stock solution to reach the final concentration of 180-200 nM.
# The 5× incubation buffer was 350 mM HEPES-KOH (pH 7.6), 260 mM NH4OAc, 40 mM Mg(OAc)2, 150 mM KCl, 7 mM DTT and 12.6% glycerol. The 1× incubation buffer in final reaction volume was also supplemented with 1 mM ATP and 5 μg/ml of Phe-tRNA synthetase, 7.2 mM phosphoenolpyruvate and 2.5 U/ml pyruvate kinase; a 40 μM stock of Cy3-labeled aminoacylated tRNA^Phe, a 30 μM stock of Cy3-labeled uncharged tRNA^Phe, a 110 μM stock of Cy5-labeled EF-Tu [C137A, C255V, E348C], a 5 mg/ml stock of Phe-tRNA synthetase, and a 10 mM stock in DMSO (7.97 mg/ml) of Kirromycin (FW 796.9).
# The Cy5-labeled EF-Tu [180 nM] (GTP form) in a 300 μl volume was placed in 1× incubation buffer. The volume was split into two parts and measured in two sets at 25° C.
# The Cy5-labeled EF-Tu [180 nM] (GTP form) in a 300 μl volume was placed in 1× incubation buffer. The reaction was split into two parts and supplemented with 100 μM GTP (Set I) or GDP (Set II). The fluorescence intensity was measured at 25° C.
# The Cy5-labeled EF-Tu [320 nM] (GTP form) was in a 300 μl volume of the 1× incubation buffer. The reaction was supplemented with 100 μM GTP and split on two parts.
# T1 sequence (P0CE48 2-394 C138A/C256V/E349C, one chain of several): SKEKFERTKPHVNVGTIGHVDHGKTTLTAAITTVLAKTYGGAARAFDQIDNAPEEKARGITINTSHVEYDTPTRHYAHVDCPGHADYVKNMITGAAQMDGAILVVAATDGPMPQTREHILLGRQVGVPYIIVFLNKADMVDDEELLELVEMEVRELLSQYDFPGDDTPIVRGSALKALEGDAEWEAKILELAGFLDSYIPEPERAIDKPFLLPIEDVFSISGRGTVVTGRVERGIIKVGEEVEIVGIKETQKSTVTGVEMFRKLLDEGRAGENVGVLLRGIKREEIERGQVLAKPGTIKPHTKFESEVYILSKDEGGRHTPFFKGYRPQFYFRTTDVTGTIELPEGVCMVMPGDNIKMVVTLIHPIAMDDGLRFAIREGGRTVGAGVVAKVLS
Molecule,"decrease in the Cy5 fluorescence of the formed complex (10-fold molar excess of GDP added to formed complex, Cy5-EF-Tu 180 nM, 100 μM GTP, Phe-tRNA^Phe(Cy3) 160 nM, 25° C., FIG. 12)","FRET response when Cy5-labeled EF-Tu was incubated with GDP (Cy5-EF-Tu 180 nM incubated with 100 μM GDP instead of GTP (plot 2 / set II), FIG. 12)",effect of the inhibitor on fluorescence intensity in the assay,"decrease of FRET response after addition of kirromycin (kirromycin 80 μM, Cy5-labeled EF-Tu 180 nM (GTP form), Cy3-PhetRNA^Phe 160 nM, 25° C., FIG. 13)"
Nc1nc2c(ncn2[C@@H]2O[C@H](COP(=O)(O)OP(=O)(O)O)[C@@H](O)[C@H]2O)c(=O)[nH]1 [GDP],60%,significantly lower,significantly reduces the fluorescence intensity,–
kirromycin,–,–,significantly reduces the fluorescence intensity,approximately 30%
